In brackets after ≈: the same amount, converted by molar mass.
Tests used:
[1] = plasma protein binding, mouse; type: in vitro ADME; settings: for fraction unbound: plasma
Procedure: (§1) The microsomal metabolic stability assay as well as the plasma protein binding assay were conducted as described previously.[78]

TACE (ADAM-17) = target: T1, TACE (ADAM-17) (Homo sapiens, UniProt P78536); assay: TACE (ADAM-17) inhibitor screening kit; type: biochemical; settings: for inhibition at 20 µM: read-out: TACE (% inhibition at 20 μM)
T1 construct: purchased Sigma-Aldrich (Saint Louis, MO)
Procedure: (§2) Since LpxC and LasB are zinc-dependent enzymes, we investigated potential off-target activity of the three frontrunners on mammalian zinc-dependent enzymes. Our panel comprised three representative matrix-metalloproteases (MMP1–3) and tumor necrosis factor-α converting enzyme (TACE, also known as ADAM17) (Table 6).
(§3) Purification of LasB from P. aeruginosa PA14 supernatant and the subsequent performance of the FRET-based in vitro inhibition assay was performed as described previously.[66] The TACE (ADAM-17) inhibitor screening kit was purchased from Sigma-Aldrich (Saint Louis, MO). MMPs 1–3 along with the SensoLyte 520 Generic MMP Activity Kit Fluorimetric were purchased from AnaSpec (Fremont, CA, USA). The assays were performed according to the guidelines of the respective manufacturer. Fluorescence signals were measured using a CLARIOstar plate reader (BMG Labtech, Ortenberg, Germany).

MMP2 = target: T2, MMP2 (Homo sapiens, UniProt P08253); assay: MMP2 inhibition (SensoLyte 520 Generic MMP Activity Kit); type: biochemical; settings: for inhibition at 100 µM: read-out: MMP2 (% inhibition at 100 μM), 100 μM
T2 construct: purchased AnaSpec (Fremont, CA, USA)
T2 sequence (P08253 110-660): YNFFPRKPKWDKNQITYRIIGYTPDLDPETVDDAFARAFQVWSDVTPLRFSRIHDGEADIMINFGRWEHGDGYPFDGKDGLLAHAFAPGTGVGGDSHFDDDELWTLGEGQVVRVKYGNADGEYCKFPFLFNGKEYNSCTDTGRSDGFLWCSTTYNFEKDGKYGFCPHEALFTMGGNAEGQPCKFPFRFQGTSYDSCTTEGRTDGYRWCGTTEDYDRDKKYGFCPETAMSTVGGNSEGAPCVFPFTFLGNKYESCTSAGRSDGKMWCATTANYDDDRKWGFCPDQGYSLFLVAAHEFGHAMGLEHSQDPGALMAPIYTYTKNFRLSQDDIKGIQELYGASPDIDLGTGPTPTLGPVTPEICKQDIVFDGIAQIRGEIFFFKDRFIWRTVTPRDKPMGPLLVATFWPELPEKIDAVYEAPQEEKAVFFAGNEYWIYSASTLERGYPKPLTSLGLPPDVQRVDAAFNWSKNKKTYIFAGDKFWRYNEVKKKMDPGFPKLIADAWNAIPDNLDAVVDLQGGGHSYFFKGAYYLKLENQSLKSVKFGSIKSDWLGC
Procedure: as §2, §3

[2] = kinetic turbidimetric solubility; type: physicochemical; settings: PBS with 1% DMSO, Kinetic solubility (1% DMSO/PBS)
Procedure: The desired compounds were sequentially diluted in DMSO in a 96-well plate. 1.5 μL from each well was transferred into another 96-well plate and mixed with 148.5 μL of PBS. Plates were shaken for 5 min at 600 rpm at room temperature, and the absorbance at 620 nm was measured. Absorbance values were normalized by blank subtraction and plotted using GraphPad Prism 8.4.2 (GraphPad Software, San Diego, CA, USA). Solubility (S) was determined based on the First X value of AUC function using a threshold of 0.005.

[3] = stability in mouse plasma; type: in vitro ADME; settings: 1 μM compound, pooled CD-1 mouse plasma; for half-life at 1 μM: CD-1, mouse, pooled plasma, read-out: mouse plasma stability t1/2
Procedure: To determine stability in mouse plasma, the compound (1 μM) was incubated with pooled CD-1 mouse plasma (Neo Biotech, Nanterre, France). Samples were taken at defined time points by mixing aliquots with 4 volumes of acetonitrile containing internal standard (125 nM diphenhydramine). Samples were stored on ice until the end of the incubation, and the precipitated protein was removed by centrifugation (15 min, 4 °C, 4000g, 2 centrifugation steps). Concentration of the remaining test compound at the different time points was analyzed by HPLC–MS/MS (TSQ Quantum Access MAX, Thermo Fisher, Dreieich, Germany). The plasma stability of procain, propantheline, and diltiazem were determined in parallel to confirm enzymatic activity.

MMP1 = target: T3, MMP1 (Homo sapiens, UniProt P03956); assay: MMP1 inhibition (SensoLyte 520 Generic MMP Activity Kit); type: biochemical; settings: read-out: MMP1 (% inhibition at 100 μM)
T3 construct: purchased AnaSpec (Fremont, CA, USA)
T3 sequence (P03956 100-469): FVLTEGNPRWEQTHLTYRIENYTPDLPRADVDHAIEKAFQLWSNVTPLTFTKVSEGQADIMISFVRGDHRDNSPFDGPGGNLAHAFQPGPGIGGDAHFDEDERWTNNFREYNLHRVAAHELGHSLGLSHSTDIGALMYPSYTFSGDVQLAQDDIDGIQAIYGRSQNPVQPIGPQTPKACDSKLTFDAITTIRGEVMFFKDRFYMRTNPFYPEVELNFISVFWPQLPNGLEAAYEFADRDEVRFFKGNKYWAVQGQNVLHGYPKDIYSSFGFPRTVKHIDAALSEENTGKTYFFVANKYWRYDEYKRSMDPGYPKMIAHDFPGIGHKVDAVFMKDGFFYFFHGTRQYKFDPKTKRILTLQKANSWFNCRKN
Procedure: as §2, §3

[4] = microsomal metabolic stability, mouse; type: in vitro ADME; settings: for microsomal CLint: mouse liver microsomes; for half-life: mouse, liver microsomes, read-out: microsomal metabolic stability t1/2
Procedure: Also, the plasma stability of the compounds in mouse plasma was generally low with half-lives between 22.9 min [(S)-13h] and 43.1 min [(S)-13j].
as §1
Samples were analyzed using an Agilent 1290 Infinity II HPLC system coupled to an AB Sciex QTrap 6500plus mass spectrometer. LC conditions were as follows: column: Agilent Zorbax Eclipse Plus C18, 50 × 2.1 mm, 1.8 μm; temperature: 30 °C; injection volume: 5 μL per sample; flow rate: 700 μL min^–1. Samples were run under acidic conditions. Solvents: (A) water + 0.1% formic acid; (B) 95% acetonitrile/5% H2O + 0.1% formic acid. Gradient elution: (A %): 0–0.1 min: 99%, 0.1–3.5 min: gradient from 99 to 50%, 3.5–3.8 min: gradient from 50 to 0%, 3.8–4.7 min: gradient from 0 to 99%. Mass transitions for controls and compounds are depicted in Table S3.

T1 sequence (P78536 215-824, species assumed): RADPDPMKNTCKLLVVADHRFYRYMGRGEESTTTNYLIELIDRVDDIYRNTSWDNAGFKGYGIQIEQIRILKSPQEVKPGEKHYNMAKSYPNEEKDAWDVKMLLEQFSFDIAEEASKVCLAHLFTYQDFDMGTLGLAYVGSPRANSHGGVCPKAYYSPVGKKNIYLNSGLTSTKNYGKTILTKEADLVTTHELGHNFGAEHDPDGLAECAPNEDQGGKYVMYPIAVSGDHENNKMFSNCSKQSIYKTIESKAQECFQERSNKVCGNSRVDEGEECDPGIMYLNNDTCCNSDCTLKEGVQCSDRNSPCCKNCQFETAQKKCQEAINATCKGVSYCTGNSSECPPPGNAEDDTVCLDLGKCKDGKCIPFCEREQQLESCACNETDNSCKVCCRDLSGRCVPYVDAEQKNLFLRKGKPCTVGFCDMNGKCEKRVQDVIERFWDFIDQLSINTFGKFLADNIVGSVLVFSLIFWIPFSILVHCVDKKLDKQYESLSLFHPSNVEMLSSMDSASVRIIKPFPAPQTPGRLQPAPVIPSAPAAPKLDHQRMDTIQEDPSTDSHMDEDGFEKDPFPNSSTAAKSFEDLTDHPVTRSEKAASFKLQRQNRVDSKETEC

| Compound | fraction unbound [1] | inhibition at 20 µM (TACE (ADAM-17)) | inhibition at 100 µM (MMP2) | solubility kinetic at 5 min [2] | half-life at 1 μM [3] | inhibition at 100 µM (MMP1) | microsomal CLint [4] | half-life [4] | inhibition at 100 µM (TACE (ADAM-17); 100 μM (as printed in text)) | MMP2 (% inhibition at 100 μM) (MMP2; 100 μM) | mouse plasma stability t1/2 [3] | plasma protein binding mouse [1] | IC50 (TACE (ADAM-17)) | selectivity factor for TACE (TACE (ADAM-17); TACE versus LpxC) | IC50 (MMP2) | selectivity factor for MMP2 (MMP2; MMP2 versus LpxC) |
| --- | --- | --- | --- | --- | --- | --- | --- | --- | --- | --- | --- | --- | --- | --- | --- | --- |
| O=C(NC[C@H](OCc1ccc(C#Cc2ccc(CN3CCOCC3)cc2)cc1)C(=O)NO)c1c[nH]c2ccccc12 [(S)-13h] | 0.0541 | < 10% | 15 ± 3% | 53.5 ± 1.9 µM (≈ 29.6 µg/mL) | 22.9 ± 4.8 min | 15 ± 7% | < 23 µL/min/mg | > 60 min |  |  |  |  |  |  |  |  |
| O=C(NC[C@H](OCc1ccc(C#Cc2ccc(CN3CCOCC3)cc2)cc1)C(=O)NO)c1ccc2[nH]ccc2c1 [(S)-13j] | 0.0795 | 38 ± 5% | ~50% | 46 ± 11 µM (≈ 25.4 µg/mL) | 43.1 min | < 10% | < 23 µL/min/mg | > 60 min | 38% | 47 ± 3% | 43 ± 13 min |  |  |  |  |  |
| O=C(NC[C@H](OCc1ccc(C#Cc2ccc(CN3CCOCC3)cc2)cc1)C(=O)NO)c1cc[nH]n1 [(S)-13l] | > 0.2 | 81 ± 2% | 65 ± 4% | ≥ 100 µM | 24.2 ± 5 min | 11 ± 6% | 26 µL/min/mg | ~53 min |  |  |  | 79.42 ± 2.5% | 5.4 µM | 8.4 | 67 µM | 105 |
